In article PMC5298231, “The Malaria Parasite's Lactate Transporter PfFNT Is the Target of Antiplasmodial Compounds Identified in Whole Cell Phenotypic Screens” (PLoS Pathogens, 2017):
Values joined by “and” are separate entries in the source; they are usually repeats but may differ in a detail not shown here. Identical values can stand only once. Like-named read-outs stand apart in the source and are kept apart here.

Experiments:
[1] = system: erythrocytes infected with 3D7 trophozoites (extracellular medium); assay: LC-MS metabolite profiling, extracellular medium of parasitised erythrocyte suspensions; settings: 6 μM
[2] = system: 3D7 parasites; assay: Parasite proliferation assay, 3D7; format: cell-based, Plasmodium falciparum; settings: 3D7 (our laboratory); mean ± SEM; read-out: IC50 value, growth inhibition
Protocol: (§1) Parasite proliferation was measured in 96-well plates using a fluorescent DNA-intercalating dye. The assays were initiated with erythrocytes infected with predominantly ring-stage parasites, and the starting parasitaemia was 0.5–1% and the haematocrit was 1%.

[3] = target: T1, PfFNT^Gly107Ser (Plasmodium falciparum, UniProt O77389, G107S); assay: PfFNT-mediated L-[14C]lactate uptake by Xenopus oocytes expressing PfFNT Gly107Ser; format: cell-based; settings: PfFNT Gly107Ser in Xenopus oocytes; pH 6.4, 27.5°C, 10 min; mean ± SEM, n = 4; read-out: IC50, inhibition of PfFNT-mediated L-[14C]lactate transport
T1 construct: expressed in transfected cells; host or cells: Xenopus laevis oocytes (cRNA microinjected, 30 ng)
T1 sequence (O77389 1-309 G107S): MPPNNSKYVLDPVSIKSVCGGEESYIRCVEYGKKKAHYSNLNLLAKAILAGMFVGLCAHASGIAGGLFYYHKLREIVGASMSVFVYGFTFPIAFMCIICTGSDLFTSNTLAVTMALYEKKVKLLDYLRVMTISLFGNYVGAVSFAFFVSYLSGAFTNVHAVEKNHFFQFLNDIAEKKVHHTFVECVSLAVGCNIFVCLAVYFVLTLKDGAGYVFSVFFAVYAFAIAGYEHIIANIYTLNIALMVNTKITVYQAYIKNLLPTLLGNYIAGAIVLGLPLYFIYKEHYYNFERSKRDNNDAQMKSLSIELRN
Protocol: (§2) The PfFNT-mediated uptake of L-[^14C]lactate by oocytes expressing native PfFNT (black symbols) or oocytes expressing PfFNT^Gly107Ser (white symbols) was measured in the presence of a range of different concentrations of MMV007839 (A) and MMV000972 (B). […] To enable a visual comparison between the native PfFNT and PfFNT^Gly107Ser datasets, only part of the concentration range used for the latter is shown in the main panels. The insets show the data obtained for PfFNT^Gly107Ser over the full concentration range tested. In all cases, the data are averaged from four independent experiments (using oocytes from different frogs) and are shown ± SEM. The uptake was measured at 27.5°C over 10 min at pH 6.4 using 2.7 μM L-[^14C]lactate and 600 μM unlabelled L-lactate.
(§3) The oocyte expression vectors containing PfFNT, PfENT1 and PfCRT were made previously. […] The uptake of radiolabelled substrates was measured 2–5 days post-injection at 27.5°C in ND96 buffer (containing 96 mM NaCl, 2 mM KCl, 1 mM MgCl2, 1.8 mM CaCl2, 10 mM MES and 10 mM Tris-base; pH-adjusted to the value specified in the relevant Figure legends). […] The oocytes were then transferred to separate wells of a 96-well plate, lysed with 10% SDS, and the radioactivity measured as described previously.

[4] = system: 3D7 parasites; assay: Parasite viability after timed exposure and washout (parasitaemia on Day 3); settings: 6 μM; for Effect on parasite viability: parasitaemia three days later
[5] = system: PfFNT^Gly107Ser mutant parasites (MMV007839-selected culture B); assay: L-[14C]lactate uptake by isolated PfFNT Gly107Ser mutant parasites; settings: read-out: IC50, inhibition of L-[14C]lactate transport, pH 6.1, 4°C, 20 s, mean ± SEM
[6] = system: Dd2 parental parasites; assay: L-[14C]lactate uptake by isolated Dd2 parental parasites; settings: read-out: IC50, inhibition of L-[14C]lactate uptake; Dd2 (parental) parasites; pH 6.1, 4°C, 20 s; mean ± SEM
[7] = system: PfENT1; assay: [3H]hypoxanthine uptake by Xenopus oocytes expressing PfENT1; format: cell-based, Plasmodium falciparum; settings: 1 μM and 4 μM; pH 6.0, 30 min
Source text: (§4) (PfCRT; from the chloroquine-resistant Dd2 strain) and on [^3H]hypoxanthine transport by oocytes expressing the P. falciparum equilibrative nucleoside/nucleobase transporter PfENT1 [27, 28].
The oocyte expression vectors containing PfFNT, PfENT1 and PfCRT were made previously. The Gly107Ser mutant form of PfFNT was generated through site-directed mutagenesis of the oocyte expression vector containing wild-type (3D7) PfFNT using primers 9 and 10 (S2 Table). Oocytes were harvested from adult female Xenopus laevis frogs and prepared as described previously. cRNA was made using the mMessage mMachine T7 transcription kit and the MEGAclear kit (Ambion) and microinjected into oocytes as outlined elsewhere. The amount of cRNA injected (per oocyte) was 30 ng for PfFNT, 10 ng for PfENT1, and 20 ng for PfCRT. The uptake of radiolabelled substrates was measured 2–5 days post-injection at 27.5°C in ND96 buffer (containing 96 mM NaCl, 2 mM KCl, 1 mM MgCl2, 1.8 mM CaCl2, 10 mM MES and 10 mM Tris-base; pH-adjusted to the value specified in the relevant Figure legends). […] Each experiment used ten oocytes for each condition tested. The influx of the radiolabelled substrate was halted by removing the reaction buffer and washing the oocytes twice in ice-cold ND96 buffer (3.5 mL). The oocytes were then transferred to separate wells of a 96-well plate, lysed with 10% SDS, and the radioactivity measured as described previously.
The data are averaged from four to five independent experiments (performed using oocytes from different frogs) and are shown + SEM. In B, the uptake of [^3H]hypoxanthine (0.36 μM) was measured over 30 min at pH 6.0. […] The data are averaged from three to six independent experiments (performed using oocytes from different frogs) and are shown + SEM. […] (TIF) Click here for additional data file.

[8] = system: 3D7 parasites; settings: cited from earlier work
[9] = system: PfCRT (from the chloroquine-resistant Dd2 strain); assay: [3H]chloroquine uptake by Xenopus oocytes expressing PfCRT; format: cell-based, Plasmodium falciparum; settings: 1 μM and 4 μM; pH 5.5
Source text: as §4
The oocyte expression vectors containing PfFNT, PfENT1 and PfCRT were made previously. The Gly107Ser mutant form of PfFNT was generated through site-directed mutagenesis of the oocyte expression vector containing wild-type (3D7) PfFNT using primers 9 and 10 (S2 Table). Oocytes were harvested from adult female Xenopus laevis frogs and prepared as described previously. cRNA was made using the mMessage mMachine T7 transcription kit and the MEGAclear kit (Ambion) and microinjected into oocytes as outlined elsewhere. […] The uptake of radiolabelled substrates was measured 2–5 days post-injection at 27.5°C in ND96 buffer (containing 96 mM NaCl, 2 mM KCl, 1 mM MgCl2, 1.8 mM CaCl2, 10 mM MES and 10 mM Tris-base; pH-adjusted to the value specified in the relevant Figure legends). […] The oocytes were then transferred to separate wells of a 96-well plate, lysed with 10% SDS, and the radioactivity measured as described previously.
The data are averaged from four to five independent experiments (performed using oocytes from different frogs) and are shown + SEM. In B, the uptake of [^3H]hypoxanthine (0.36 μM) was measured over 30 min at pH 6.0. […]

[10] = system: MMV007839-selected culture A (PfFNT Gly107Ser); assay: Parasite proliferation assay, MMV007839-selected culture A; format: cell-based, Plasmodium falciparum; settings: MMV007839-selected culture A; mean ± SEM; read-out: IC50 value, growth inhibition
Protocol: as §1
For MMV007839-selected culture A, the drug concentration was increased by 5 nM increments on Day 18, Day 21, and every two days thereafter. […] The cultures were provided with fresh medium and blood and diluted to reduce the parasitaemia as needed.

[11] = target: T2, native PfFNT (Plasmodium falciparum, UniProt O77389); format: cell-based; settings: native PfFNT in Xenopus oocytes; pH 6.4, 27.5°C, 10 min; mean ± SEM, n = 4; read-out: IC50, inhibition of PfFNT-mediated L-[14C]lactate transport
T2 construct: expressed in transfected cells; host or cells: Xenopus laevis oocytes (cRNA microinjected, 30 ng)
Protocol: as §2, §3

[12] = system: isolated 3D7 P. falciparum trophozoites; assay: L-[14C]lactate uptake by isolated 3D7 trophozoites; settings: pH 6.1, 4°C, 20 s

T2 sequence (O77389 whole entry): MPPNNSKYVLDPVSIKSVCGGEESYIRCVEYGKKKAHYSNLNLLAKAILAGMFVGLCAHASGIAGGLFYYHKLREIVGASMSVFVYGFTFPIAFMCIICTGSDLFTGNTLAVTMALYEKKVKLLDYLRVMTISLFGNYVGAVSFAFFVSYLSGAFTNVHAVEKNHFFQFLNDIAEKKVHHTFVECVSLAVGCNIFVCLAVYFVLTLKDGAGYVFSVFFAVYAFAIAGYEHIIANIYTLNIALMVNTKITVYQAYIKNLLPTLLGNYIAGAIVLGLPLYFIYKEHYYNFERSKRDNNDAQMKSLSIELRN

## COc1ccc2c(c1)OC(O)(C(F)(F)C(F)(F)F)CC2=O (centres unmarked) [MMV007839]
[1]; not statistically significant
  Extracellular lactate level, treated vs untreated: decreased
  Extracellular pyruvate level, treated vs untreated: increased
  Extracellular α-ketoglutarate level, treated vs untreated: decreased
[1]; statistically significant
  Extracellular 3-phosphoglycerate level, treated vs untreated: increased
  Extracellular phosphoenolpyruvate level, treated vs untreated: increased
[2]
  IC50: 260 ± 30 nM
[3]
  IC50: 1300 ± 200 nM
[4]; 1 h exposure
  Effect on parasite viability: did not significantly affect
[4]; 3 h exposure
  Effect on parasite viability: did not significantly affect
[4]; 6 h exposure, mean ± SEM, n = 3
  Parasitaemia three days after exposure, of control levels: 49 ± 7%
[5]
  IC50: 16300 ± 4400 nM
[6]
  IC50: 158 ± 42 nM
[7]
  Inhibition of [3H]hypoxanthine uptake by PfENT1-expressing oocytes: not inhibiting
[8]; ref [1] Van Voorhis et al. 2016, read-out: IC50 for killing of 3D7 parasites
  IC50: 280 nM
[8]; ref http://www.mmv.org/research-development/malaria-box-supporting-information, read-out: IC50 against 3D7 parasites, other groups
  IC50: 283 to 442 nM
[9]
  Effect on transport of [3H]chloroquine via PfCRT: not inhibiting
[10]
  IC50: 35800 ± 2700 nM
[11]
  IC50: 22.5 nM and 23 nM
[12]; 0.5 μM
  Inhibition of L-[14C]lactate influx: inhibited L-[^14C]lactate influx to a similar degree
[12]; 2 μM
  Inhibition of L-[14C]lactate uptake: complete inhibition
